Measurements from patent US20090118274A1, “MONOCYCLIC AMINOPROPYL TETRAHYDRO-PYRAZOLO-PYRIDINE MODULATORS OF CATHEPSIN S” (priority 2007, published 2009).
Where two headings read alike, the source gives them in different places.

Biological target: T1, Recombinant human cathepsin S (CatS) (Homo sapiens, UniProt P25774)
T1 construct: made in house
Test: Recombinant human cathepsin S (CatS) fluorogenic substrate inhibition assay
Type: biochemical
Protocol: Recombinant human cathepsin S (CatS) was expressed in the baculovirus system and purified in one step with a thiopropyl-sepharose column. […] The assay is run in 150 mM sodium acetate pH 5.0 containing 1.5 mM DTT and 150 mM NaCl. […] Measurements are taken every min for 20 min. The rate is calculated from the slope of the increase in fluorescence and the percent inhibition is calculated from this.

[1] = average of results obtained, substrate Z-Valine-Valine-Arginine-AMC 10 μM, pH 5.0, read-out: CatS IC50

T1 sequence (P25774 115-331): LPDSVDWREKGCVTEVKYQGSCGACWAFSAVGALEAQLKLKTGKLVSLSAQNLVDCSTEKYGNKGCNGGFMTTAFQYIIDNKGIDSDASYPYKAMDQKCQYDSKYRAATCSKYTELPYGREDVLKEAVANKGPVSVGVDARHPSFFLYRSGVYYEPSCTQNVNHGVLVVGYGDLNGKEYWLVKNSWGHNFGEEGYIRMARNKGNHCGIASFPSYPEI

SMILES	IC50 [1] [nM]	IC50 [nM]
CS(=O)(=O)N1CCc2c(c(-c3ccc(Cl)c(CNC(=O)c4ccc(Cl)cc4)c3)nn2CCCN2CCCC2)C1 [Example 86, 4-Chloro-N-{2-chloro-5-[5-methanesulfonyl-1-(3-pyrrolidin-1-yl-propyl)-4,5,6,7-tetrahydro-1H-pyrazolo[4,3-c]pyridin-3-yl]-benzyl}-benzamide]	960	–
CS(=O)(=O)N1CCc2c(c(-c3ccc(C(F)(F)F)c(CNC(=O)c4ccc(F)cc4)c3)nn2CC(O)CN2CC[C@@H](CO)C2)C1 (stereo partly drawn) [Example 95, (R)-4-Fluoro-N-(5-{1-[2-hydroxy-3-(3-hydroxymethyl-pyrrolidin-1-yl)-propyl]-5-methanesulfonyl-4,5,6,7-tetrahydro-1H-pyrazolo[4,3-c]pyridin-3-yl}-2-trifluoromethyl-benzyl)-benzamide]	230	–
CS(=O)(=O)N1CCc2c(c(-c3ccc(Cl)c(CNC(=O)c4ccc(F)cc4)c3)nn2CC(O)CN2CCC(N)CC2)C1 (stereo not drawn) [Example 83, N-(5-{1-[3-(4-Amino-piperidin-1-yl)-2-hydroxy-propyl]-5-methanesulfonyl-4,5,6,7-tetrahydro-1H-pyrazolo[4,3-c]pyridin-3-yl}-2-chloro-benzyl)-4-fluoro-benzamide]	270	–
CCOC(=O)NC1CCN(CC(O)Cn2nc(-c3ccc(C(F)(F)F)c(CNC(=O)CC(C)C)c3)c3c2CCN(S(C)(=O)=O)C3)CC1 (stereo not drawn) [Example 155, {1-[2-Hydroxy-3-(5-methanesulfonyl-3-{3-[(3-methyl-butyrylamino)-methyl]-4-trifluoromethyl-phenyl}-4,5,6,7-tetrahydro-pyrazolo[4,3-c]pyridin-1-yl)-propyl]-piperidin-4-yl}-carbamic acid ethyl ester]	50	–
CS(=O)(=O)N1CCc2c(c(-c3ccc(C(F)(F)F)c(CNC(=O)Oc4ccccc4)c3)nn2CCCN2CCC3(CCNC3=O)CC2)C1 [Example 148, (5-{5-Methanesulfonyl-1-[3-(1-oxo-2,8-diaza-spiro[4.5]dec-8-yl)-propyl]-4,5,6,7-tetrahydro-1H-pyrazolo[4,3-c]pyridin-3-yl}-2-trifluoromethyl-benzyl)-carbamic acid phenyl ester]	–	200
CS(=O)(=O)N1CCc2c(c(-c3ccc(Cl)c(CNC(=O)c4ccc(F)cc4)c3)nn2CC(O)CN2CCCC(C(N)=O)C2)C1 (stereo not drawn) [Example 81, 1-[3-(3-{4-Chloro-3-[(4-fluoro-benzoylamino)-methyl]-phenyl}-5-methanesulfonyl-4,5,6,7-tetrahydro-pyrazolo[4,3-c]pyridin-1-yl)-2-hydroxy-propyl]-piperidine-3-carboxylic acid amide]	170	–
CS(=O)(=O)N1CCc2c(c(-c3ccc(C(F)(F)F)c(CNC(=O)c4ccc(F)cc4)c3)nn2CC(O)CN2CCCC2)C1 (stereo not drawn) [Example 57, 4-Fluoro-N-{5-[1-(2-hydroxy-3-pyrrolidin-1-yl-propyl)-5-methanesulfonyl-4,5,6,7-tetrahydro-1H-pyrazolo[4,3-c]pyridin-3-yl]-2-trifluoromethyl-benzyl}-benzamide]	160	–
CS(=O)(=O)N1CCc2c(c(-c3ccc(C(F)(F)F)c(CNC(=O)c4ccc(F)cc4)c3)nn2CC(O)CN2CCC(O)CC2)C1 (stereo not drawn) [Example 25, 4-Fluoro-N-(5-{1-[2-hydroxy-3-(4-hydroxy-piperidin-1-yl)-propyl]-5-methanesulfonyl-4,5,6,7-tetrahydro-1H-pyrazolo[4,3-c]pyridin-3-yl}-2-trifluoromethyl-benzyl)-benzamide]	170	–
CS(=O)(=O)N1CCc2c(c(-c3ccc(C(F)(F)F)c(CNC(=O)C4CCCCCC4)c3)nn2CCCN2CCC3(CCNC3=O)CC2)C1 [Example 158, Cycloheptanecarboxylic acid 5-{5-methanesulfonyl-1-[3-(1-oxo-2,8-diaza-spiro[4.5]dec-8-yl)-propyl]-4,5,6,7-tetrahydro-1H-pyrazolo[4,3-c]pyridin-3-yl}-2-trifluoromethyl-benzylamide]	280	–
CS(=O)(=O)N1CCc2c(c(-c3ccc(C(F)(F)F)c(CNC(=O)c4ccc(F)cc4Cl)c3)nn2CC(O)CN2CCCC2)C1 (stereo not drawn) [Example 63, 2-Chloro-4-fluoro-N-{5-[1-(2-hydroxy-3-pyrrolidin-1-yl-propyl)-5-methanesulfonyl-4,5,6,7-tetrahydro-1H-pyrazolo[4,3-c]pyridin-3-yl]-2-trifluoromethyl-benzyl}-benzamide]	250	–
CC(C)N1CCN(CC(O)Cn2nc(-c3ccc(C(F)(F)F)c(CNC(=O)c4ccc(F)cc4)c3)c3c2CCN(S(C)(=O)=O)C3)CC1 (stereo not drawn) [Example 20, 4-Fluoro-N-(5-{1-[2-hydroxy-3-(4-isopropyl-piperazin-1-yl)-propyl]-5-methanesulfonyl-4,5,6,7-tetrahydro-1H-pyrazolo[4,3-c]pyridin-3-yl}-2-trifluoromethyl-benzyl)-benzamide]	400	–
CS(=O)(=O)N1CCc2c(c(-c3ccc(Cl)c(CNC(=O)c4ccc(Cl)c(Cl)c4)c3)nn2CCCN2CCCC2)C1 [Example 87, 3,4-Dichloro-N-{2-chloro-5-[5-methanesulfonyl-1-(3-pyrrolidin-1-yl-propyl)-4,5,6,7-tetrahydro-1H-pyrazolo[4,3-c]pyridin-3-yl]-benzyl}-benzamide]	1020	–
CS(=O)(=O)N1CCc2c(c(-c3ccc(C(F)(F)F)c(CNS(=O)(=O)c4ccccc4)c3)nn2CC(O)CN2CCCC2)C1 (stereo not drawn) [Example 66, N-{5-[1-(2-Hydroxy-3-pyrrolidin-1-yl-propyl)-5-methanesulfonyl-4,5,6,7-tetrahydro-1H-pyrazolo[4,3-c]pyridin-3-yl]-2-trifluoromethyl-benzyl}-benzenesulfonamide]	2900	–
CC1CCN(CC(O)Cn2nc(-c3ccc(C(F)(F)F)c(CNC(=O)c4ccc(F)cc4)c3)c3c2CCN(S(C)(=O)=O)C3)CC1 (stereo not drawn) [Example 22, 4-Fluoro-N-(5-{1-[2-hydroxy-3-(4-methyl-piperidin-1-yl)-propyl]-5-methanesulfonyl-4,5,6,7-tetrahydro-1H-pyrazolo[4,3-c]pyridin-3-yl}-2-trifluoromethyl-benzyl)-benzamide]	100	–

The next lines start with results.

IC50 [1] [nM]	SMILES	IC50 [nM]
50	CC(=O)NC1CCN(CC(O)Cn2nc(-c3ccc(C(F)(F)F)c(CNC(=O)CC(C)C)c3)c3c2CCN(S(C)(=O)=O)C3)CC1 (stereo not drawn) [Example 250, N-(5-{1-[3-(4-Acetylamino-piperidin-1-yl)-2-hydroxy-propyl]-5-methanesulfonyl-4,5,6,7-tetrahydro-1H-pyrazolo[4,3-c]pyridin-3-yl}-2-trifluoromethyl-benzyl)-3-methyl-butyramide]	–
300	CC(C)CC(=O)NCc1cc(-c2nn(CC(O)CN3CCC(C)(C)CC3)c3c2CN(S(C)(=O)=O)CC3)ccc1C(F)(F)F (stereo not drawn) [Example 251, N-(5-{1-[3-(4,4-Dimethyl-piperidin-1-yl)-2-hydroxy-propyl]-5-methanesulfonyl-4,5,6,7-tetrahydro-1H-pyrazolo[4,3-c]pyridin-3-yl}-2-trifluoromethyl-benzyl)-3-methyl-butyramide]	–
240	CC(=O)N(C)C1CCN(CC(O)Cn2nc(-c3ccc(C(F)(F)F)c(CNC(=O)CC(C)C)c3)c3c2CCN(S(C)(=O)=O)C3)C1 (stereo not drawn) [Example 279, N-[5-(1-{3-[3-(Acetyl-methyl-amino)-pyrrolidin-1-yl]-2-hydroxy-propyl}-5-methanesulfonyl-4,5,6,7-tetrahydro-1H-pyrazolo[4,3-c]pyridin-3-yl)-2-trifluoromethyl-benzyl]-3-methyl-butyramide]	–
50	CC(C)CC(=O)NCc1cc(-c2nn(CC(O)CN3CCC(NC(=O)OC(C)(C)C)CC3)c3c2CN(S(C)(=O)=O)CC3)ccc1C(F)(F)F (stereo not drawn) [Example 244]	–
670	C/N=c1/ccccn1CC(O)Cn1nc(-c2ccc(Cl)c(CNC(=O)c3ccc(F)cc3)c2)c2c1CCN(S(C)(=O)=O)C2 (stereo not drawn) [Example 221, N-(2-Chloro-5-{1-[2-hydroxy-3-(2-methylimino-2H-pyridin-1-yl)-propyl]-5-methanesulfonyl-4,5,6,7-tetrahydro-1H-pyrazolo[4,3-c]pyridin-3-yl}-benzyl)-4-fluoro-benzamide]	–
2550	CS(=O)(=O)N1CCc2c(c(-c3ccc(Cl)c(CCC(=O)Nc4ccccc4)c3)nn2CCCN2CCOCC2)C1 [Example 292, 3-{2-Chloro-5-[5-methanesulfonyl-1-(3-morpholin-4-yl-propyl)-4,5,6,7-tetrahydro-1H-pyrazolo[4,3-c]pyridin-3-yl]-phenyl}-N-phenyl-propionamide]	–
5600	CS(=O)(=O)N1CCc2c(c(-c3ccc(C(F)(F)F)c(C(=O)NCc4ccccc4)c3)nn2CC(O)CN2CCCC2)C1 (stereo not drawn) [Example 193, N-Benzyl-5-[1-(2-hydroxy-3-pyrrolidin-1-yl-propyl)-5-methanesulfonyl-4,5,6,7-tetrahydro-1H-pyrazolo[4,3-c]pyridin-3-yl]-2-trifluoromethyl-benzamide]	–
550	CS(=O)(=O)N1CCc2c(c(-c3ccc(C(F)(F)F)c(CNC(=O)c4ccc(F)cc4)c3)nn2CC(O)CN2CCS(=O)(=O)CC2)C1 (stereo not drawn) [Example 169, N-(5-{1-[3-(1,1-Dioxo-1λ^6-thiomorpholin-4-yl)-2-hydroxy-propyl]-5-methanesulfonyl-4,5,6,7-tetrahydro-1H-pyrazolo[4,3-c]pyridin-3-yl}-2-trifluoromethyl-benzyl)-4-fluoro-benzamide]	–
560	CS(=O)(=O)N1CCc2c(c(-c3ccc(Cl)c(CNC(=O)c4ccccc4)c3)nn2CC(O)CN2CCCCCC2)C1 (stereo not drawn) [Example 170, N-{5-[1-(3-Azepan-1-yl-2-hydroxy-propyl)-5-methanesulfonyl-4,5,6,7-tetrahydro-1H-pyrazolo[4,3-c]pyridin-3-yl]-2-chloro-benzyl}-benzamide]	–
750	CS(=O)(=O)N1CCc2c(c(-c3ccc(C(F)(F)F)c(CNC(=O)c4ccc(C(F)(F)F)cc4)c3)nn2CC(O)CN2CCCC2)C1 (stereo not drawn) [Example 225, N-{5-[1-(2-Hydroxy-3-pyrrolidin-1-yl-propyl)-5-methanesulfonyl-4,5,6,7-tetrahydro-1H-pyrazolo[4,3-c]pyridin-3-yl]-2-trifluoromethyl-benzyl]-4-trifluoromethyl-benzamide]	–
